Patent US20230227427A1, “IL-17A MODULATORS” (SANOFI, priority 2010, published 2023)
Read-outs that look alike come from different tables or passages of the source.

Target: T1, human recombinant IL-17A (Homo sapiens, UniProt Q16552)
T1 construct: purchased R&D Systems 7955-IL/CF
T1 sequence (Q16552 24-155): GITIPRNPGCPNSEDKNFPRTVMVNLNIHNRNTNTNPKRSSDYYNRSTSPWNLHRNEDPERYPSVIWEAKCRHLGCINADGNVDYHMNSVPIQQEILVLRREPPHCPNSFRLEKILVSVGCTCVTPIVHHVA
Experiment: IL-17A AlphaLISA assay (block binding of IL-17A to its receptor IL-17RA)
Conditions: read-out: AlphaLISA pIC50 (converted)
Method in brief: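 PBS with 0.05% Tween-20 and 0.1% BSA. IL-17A stock 7.5 nM, IL-17RA/Fc stock 5 nM; compound–cytokine pre-incubation 24 h at RT, or 30 min where marked, then 90 min with receptor. pIC50 from 4-parameter logistic AlphaLISA signal, normalised to DMSO and 6 μM reference inhibitor.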

[1] = compounds pre-incubated with the IL-17A for 30 min (indicated by * in Table A)
[2] = compounds pre-incubated with the IL-17A for 24 h at room temperature

Row | SMILES | IC50 [1] [nM] | IC50 [2] [nM]
1 | CCn1nccc1C(=O)NC(C(=O)Nc1ccc(-c2c(C)cnn2C)cn1)[C@H]1CC[C@H](C(F)(F)F)CC1 (stereo partly drawn) [Example 186, N-(2-((5-(1,4-dimethyl-1H-pyrazol-5-yl)pyridin-2-yl)amino)-2-oxo-1-((1r,4r)-4-(trifluoromethyl)cyclohexyl)ethyl)-1-ethyl-1H-pyrazole-5-carboxamide] | 398 | 
2 | Cn1nccc1C(=O)N[C@H](C(=O)Nc1ccc(-c2ccc(=O)n(C)c2)cc1)C(c1ccccc1)c1ccccc1 [Example 51, (S)-1-methyl-N-(1-((4-(1-methyl-6-oxo-1,6-dihydropyridin-3-yl)phenyl)amino)-1-oxo-3,3-diphenylpropan-2-yl)-1H-pyrazole-5-carboxamide] |  | 25.1
3 | Cc1cncc(C)c1-c1ccc(NC(=O)[C@@H](NC(=O)c2ccnn2C)C(c2ccccc2)c2ccccc2)cc1 [Example 6, (S)—N-(1-((4-(3,5-dimethylpyridin-4-yl)phenyl)amino)-1-oxo-3,3-diphenylpropan-2-yl)-1-methyl-1H-pyrazole-5-carboxamide] |  | 12.6
4 | Cc1c(-c2ccc(NC(=O)[C@@H](NC(=O)c3ccnn3C)C(c3ccccc3)c3ccccc3)nc2)ccc(=O)n1C [Example 72, (S)—N-(1-((1′,2′-dimethyl-6′-oxo-1′,6′-dihydro-[3,3′-bipyridin]-6-yl)amino)-1-oxo-3,3-diphenylpropan-2-yl)-1-methyl-1H-pyrazole-5-carboxamide] |  | 79.4
5 | Cn1nccc1C(=O)N[C@H](C(=O)Nc1ccc(-c2ccnc3c2CCC3)cc1)C(c1ccccc1)c1ccccc1 [Example 44, (S)—N-(1-((4-(6,7-dihydro-5H-cyclopenta[b]pyridin-4-yl)phenyl)amino)-1-oxo-3,3-diphenylpropan-2-yl)-1-methyl-1H-pyrazole-5-carboxamide] |  | 251
6 | Cn1nccc1C(=O)N[C@H](C(=O)Nc1ccc(-c2cn[nH]c2)c(F)c1)C(c1ccccc1)c1ccccc1 [Example 62, (S)—N-(1-((3-fluoro-4-(1H-pyrazol-4-yl)phenyl)amino)-1-oxo-3,3-diphenylpropan-2-yl)-1-methyl-1H-pyrazole-5-carboxamide] |  | 794
7 | CCc1nocc1C(=O)N[C@H](C(=O)Nc1ccc(-c2c(C)cnn2C)cn1)C1CCC(F)(F)CC1 [Example 144, (S)—N-(1-(4,4-difluorocyclohexyl)-2-((5-(1,4-dimethyl-1H-pyrazol-5-yl)pyridin-2-yl)amino)-2-oxoethyl)-3-ethylisoxazole-4-carboxamide] | 794 | 
8 | Cc1noc(C)c1-c1ncc(NC(=O)[C@@H](NC(=O)c2ccnn2C)[C@H]2CC[C@H](C)CC2)cn1 [Example 135, N—((S)-2-((2-(3,5-dimethylisoxazol-4-yl)pyrimidin-5-yl)amino)-1-((1r,4S)-4-methylcyclohexyl)-2-oxoethyl)-1-methyl-1H-pyrazole-5-carboxamide] | 398 | 
9 | Cc1c(-c2ccc(NC(=O)C(NC(=O)c3ccnn3C)C3CCCCCCC3)cc2)ccc(=O)n1C (stereo not drawn) [Example 107, N-(1-Cyclooctyl-2-((4-(1,2-dimethyl-6-oxo-1,6-dihydropyridin-3-yl)phenyl)amino)-2-oxoethyl)-1-methyl-1H-pyrazole-5-carboxamide] | 158 | 
10 | Cc1cnn(C)c1-c1ncc(NC(=O)[C@@H](NC(=O)c2ccnn2C)[C@H]2CC[C@H](C)CC2)cc1F [Example 179, N—((S)-2-((6-(1,4-dimethyl-1H-pyrazol-5-yl)-5-fluoropyridin-3-yl)amino)-1-((1r,4S)-4-methylcyclohexyl)-2-oxoethyl)-1-methyl-1H-pyrazole-5-carboxamide] | 501 | 
11 | Cn1nccc1C(=O)N[C@H](C(=O)Nc1ccc(-c2c[nH]c(=O)c3cccnc23)c(F)c1)C(c1ccccc1)c1ccccc1 [Example 66, (S)—N-(1-((3-fluoro-4-(5-oxo-5,6-dihydro-1,6-naphthyridin-8-yl)phenyl)amino)-1-oxo-3,3-diphenylpropan-2-yl)-1-methyl-1H-pyrazole-5-carboxamide] |  | 25.1
12 | CCn1nccc1C(=O)N[C@H](C(=O)Nc1ccc(-c2cn[nH]c(=O)c2)c(F)c1)C(c1ccccc1)c1ccccc1 [Example 67, (S)-1-ethyl-N-(1-((3-fluoro-4-(6-oxo-1,6-dihydropyridazin-4-yl)phenyl)amino)-1-oxo-3,3-diphenylpropan-2-yl)-1H-pyrazole-5-carboxamide] |  | 398
13 | COc1c[n+]([O-])ccc1-c1ccc(NC(=O)[C@@H](NC(=O)c2ccnn2C)C(c2ccccc2)c2ccccc2)cc1 [Example 25, (S)-3-methoxy-4-(4-(2-(1-methyl-1H-pyrazole-5-carboxamido)-3,3-diphenylpropanamido)phenyl)pyridine 1-oxide] |  | 5.01
14 | Cn1nccc1C(=O)N[C@H](C(=O)Nc1ccc(-c2ccncc2Cl)cc1)C(c1ccccc1)c1ccccc1 [Example 2, (S)—N-(1-((4-(3-chloropyridin-4-yl)phenyl)amino)-1-oxo-3,3-diphenylpropan-2-yl)-1-methyl-1H-pyrazole-5-carboxamide] |  | 31.6
15 | Cc1cnn(C)c1-c1ncc(NC(=O)[C@@H](NC(=O)c2ccnn2C)[C@H]2CC[C@H](C)CC2)cn1 [Example 156, N—((S)-2-((2-(1,4-dimethyl-1H-pyrazol-5-yl)pyrimidin-5-yl)amino)-1-((1r,4S)-4-methylcyclohexyl)-2-oxoethyl)-1-methyl-1H-pyrazole-5-carboxamide] | 398 | 
16 | Cn1nccc1C(=O)N[C@H](C(=O)Nc1ccc(-c2cc[nH]c(=O)c2)c(F)c1)C(c1ccccc1)c1ccccc1 [Example 35, (S)—N-(1-((3-fluoro-4-(2-oxo-1,2-dihydropyridin-4-yl)phenyl)amino)-1-oxo-3,3-diphenylpropan-2-yl)-1-methyl-1H-pyrazole-5-carboxamide] |  | 25.1
17 | CCn1nccc1C(=O)N[C@H](C(=O)Nc1ncc(-c2c(C)noc2C)cc1F)C1CCCCCC1 [Example 163, (S)—N-(1-cycloheptyl-2-((5-(3,5-dimethylisoxazol-4-yl)-3-fluoropyridin-2-yl)amino)-2-oxoethyl)-1-ethyl-1H-pyrazole-5-carboxamide] | 63.1 | 
18 | Cn1nccc1C(=O)N[C@H](C(=O)Nc1ccc(-c2ccc(=O)n(C)n2)c(F)c1)C(c1ccccc1)c1ccccc1 [Example 48, (S)—N-(1-((3-fluoro-4-(1-methyl-6-oxo-1,6-dihydropyridazin-3-yl)phenyl)amino)-1-oxo-3,3-diphenylpropan-2-yl)-1-methyl-1H-pyrazole-5-carboxamide] |  | 158
19 | CCn1nncc1C(=O)N[C@H](C(=O)Nc1ccc(-c2c(C)cnn2C)cn1)C1CCCCCC1 [Example 141, (S)—N-(1-Cycloheptyl-2-((5-(1,4-dimethyl-1H-pyrazol-5-yl)pyridin-2-yl)amino)-2-oxoethyl)-1-ethyl-1H-1,2,3-triazole-5-carboxamide] | 158 | 

Continued, values first:

Row | IC50 [1] [nM] | IC50 [2] [nM] | SMILES
20 | 251 |  | CCn1nccc1C(=O)N[C@H](C(=O)Nc1ccc(-c2c(CO)cnn2C)cn1)[C@H]1CC[C@H](C)CC1 [Example 205, 1-ethyl-N—((S)-2-((5-(4-(hydroxymethyl)-1-methyl-1H-pyrazol-5-yl)pyridin-2-yl)amino)-1-((1r,4S)-4-methylcyclohexyl)-2-oxoethyl)-1H-pyrazole-5-carboxamide]
21 | 63.1 |  | CCc1nocc1C(=O)N[C@H](C(=O)Nc1ccc(-c2c(C)n[nH]c2C)nc1)C1CCCCCC1 [Example 210, (S)—N-(1-cycloheptyl-2-((6-(3,5-dimethyl-1H-pyrazol-4-yl)pyridin-3-yl)amino)-2-oxoethyl)-3-ethylisoxazole-4-carboxamide]
22 | 398 |  | CCc1nocc1C(=O)NC(C(=O)Nc1ccc(-c2c(C)cnn2C)cn1)[C@H]1CC[C@H](C(F)(F)F)CC1 (stereo partly drawn) [Example 187, N-(2-((5-(1,4-dimethyl-1H-pyrazol-5-yl)pyridin-2-yl)amino)-2-oxo-1-((1r,4r)-4-(trifluoromethyl)cyclohexyl)ethyl)-3-ethylisoxazole-4-carboxamide]
23 | 501 |  | Cc1nn(C)c(C)c1-c1ccc(NC(=O)[C@@H](NC(=O)c2ccnn2C)C2CCCCCC2)nc1 [Example 216, (S)—N-(1-cycloheptyl-2-oxo-2-((5-(1,3,5-trimethyl-1H-pyrazol-4-yl)pyridin-2-yl)amino)ethyl)-1-methyl-1H-pyrazole-5-carboxamide]
24 | 63.1 |  | CCn1nccc1C(=O)N[C@H](C(=O)Nc1ccc(-c2c(C)n[nH]c2C)nc1)C1CCCCCC1 [Example 208, (S)—N-(1-cycloheptyl-2-((6-(3,5-dimethyl-1H-pyrazol-4-yl)pyridin-3-yl)amino)-2-oxoethyl)-1-ethyl-1H-pyrazole-5-carboxamide]
25 | 398 |  | Cn1nncc1C(=O)N[C@H](C(=O)Nc1ccc(-c2c(Cl)cnn2C)cn1)[C@H]1CC[C@H](C)CC1 [Example 200, N—((S)-2-((5-(4-chloro-1-methyl-1H-pyrazol-5-yl)pyridin-2-yl)amino)-1-((1r,4S)-4-methylcyclohexyl)-2-oxoethyl)-1-methyl-1H-1,2,3-triazole-5-carboxamide]
26 | 501 |  | Cc1nn(C)c(-c2ccc(NC(=O)[C@@H](NC(=O)c3ccnn3C)C3CCCCCC3)nc2)c1C [Example 195, (S)—N-(1-cycloheptyl-2-oxo-2-((5-(1,3,4-trimethyl-1H-pyrazol-5-yl)pyridin-2-yl)amino)ethyl)-1-methyl-1H-pyrazole-5-carboxamide]
27 | 251 |  | Cn1nccc1C(=O)N[C@H](C(=O)Nc1ccc(-c2c(C#N)cnn2C)cn1)[C@H]1CC[C@H](C)CC1 [Example 193, N—((S)-2-((5-(4-cyano-1-methyl-1H-pyrazol-5-yl)pyridin-2-yl)amino)-1-((1r,4S)-4-methylcyclohexyl)-2-oxoethyl)-1-methyl-1H-pyrazole-5-carboxamide]
